Results: patent US10265328B2, “C-19 steroids for specific therapeutic uses” (Procima GmbH, priority 2007, dated 2019)
“Also recorded” adds a separate entry of the source.

Columns and labels:
[1] = tested on: variant of the human prostate cancer cell line LNCaP; conditions: cited from earlier work
breast cancer cells = assay: growth of breast cancer cells in culture; assay type: cell-based; conditions: certain breast cancer cells in culture
Text: A further promising concept is based on a comparative evaluation between DHT and the compounds of the present invention. […] This effect may readily hold also true for hormone independent cancer.

androgen receptor (AR) = biological target: T1, androgen receptor (AR) (Homo sapiens, UniProt P10275); assay: binding affinity to the androgen receptor compared with DHT
T1 sequence (P10275 1-920): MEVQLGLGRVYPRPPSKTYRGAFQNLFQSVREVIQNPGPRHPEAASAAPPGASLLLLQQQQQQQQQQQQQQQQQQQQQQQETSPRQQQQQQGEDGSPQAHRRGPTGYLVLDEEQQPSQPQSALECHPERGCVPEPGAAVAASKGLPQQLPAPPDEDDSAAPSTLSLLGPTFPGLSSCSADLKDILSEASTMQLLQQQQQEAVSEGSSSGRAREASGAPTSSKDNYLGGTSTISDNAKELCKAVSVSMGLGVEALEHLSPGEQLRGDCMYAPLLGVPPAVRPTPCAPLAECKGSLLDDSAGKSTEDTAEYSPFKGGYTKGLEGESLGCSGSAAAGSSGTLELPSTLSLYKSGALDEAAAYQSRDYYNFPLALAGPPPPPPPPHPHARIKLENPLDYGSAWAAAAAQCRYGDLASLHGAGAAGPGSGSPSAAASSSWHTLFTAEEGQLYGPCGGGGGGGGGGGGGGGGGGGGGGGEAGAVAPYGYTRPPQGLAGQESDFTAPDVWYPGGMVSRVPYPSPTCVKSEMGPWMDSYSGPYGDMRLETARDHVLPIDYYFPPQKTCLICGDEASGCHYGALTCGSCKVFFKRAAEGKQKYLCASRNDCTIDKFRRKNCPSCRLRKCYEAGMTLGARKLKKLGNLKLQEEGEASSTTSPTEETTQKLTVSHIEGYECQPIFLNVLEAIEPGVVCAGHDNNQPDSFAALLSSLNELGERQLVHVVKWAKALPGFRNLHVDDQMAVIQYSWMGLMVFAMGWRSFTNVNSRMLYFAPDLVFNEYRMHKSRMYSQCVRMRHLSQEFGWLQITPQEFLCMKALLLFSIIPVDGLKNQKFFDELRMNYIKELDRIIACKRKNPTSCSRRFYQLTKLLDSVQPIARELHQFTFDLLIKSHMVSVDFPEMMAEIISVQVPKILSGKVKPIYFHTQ
Method: The compounds used according to the present invention preferably have a binding affinity to the androgen receptor (AR) higher than DHT; more preferably the binding affinity is high by having affinity specific to AR in a range of IC50≤500 nM, preferably IC50≤100 nM and more preferably IC50≤50 nM, wherein IC50 is defined as the concentration of the compound required to reduce specific binding of a reference compound, 5α-dihydrotestosterone (DHT), by 50%. The IC50-values can be determined by known methods using radioactively labelled DHT as reference compound, for example by a standard dextran-coated charcoal adsorption method as described by Raynaud et al., J. Steroid Biochem. 6, 615-622 (1975), using 1 nM reference concentrations of radiolabeled [^3H]-DHT, or by similar IC50 determination methods described in the literature. Because the concentration of AR in the target cell is very low, typically in the nanomolar range approximately, differences in binding constants to the order contemplated in the present invention are significant.

aromatase = biological target: T2, aromatase (Homo sapiens, UniProt P11511); assay: aromatization of the compound
T2 sequence (P11511 1-503): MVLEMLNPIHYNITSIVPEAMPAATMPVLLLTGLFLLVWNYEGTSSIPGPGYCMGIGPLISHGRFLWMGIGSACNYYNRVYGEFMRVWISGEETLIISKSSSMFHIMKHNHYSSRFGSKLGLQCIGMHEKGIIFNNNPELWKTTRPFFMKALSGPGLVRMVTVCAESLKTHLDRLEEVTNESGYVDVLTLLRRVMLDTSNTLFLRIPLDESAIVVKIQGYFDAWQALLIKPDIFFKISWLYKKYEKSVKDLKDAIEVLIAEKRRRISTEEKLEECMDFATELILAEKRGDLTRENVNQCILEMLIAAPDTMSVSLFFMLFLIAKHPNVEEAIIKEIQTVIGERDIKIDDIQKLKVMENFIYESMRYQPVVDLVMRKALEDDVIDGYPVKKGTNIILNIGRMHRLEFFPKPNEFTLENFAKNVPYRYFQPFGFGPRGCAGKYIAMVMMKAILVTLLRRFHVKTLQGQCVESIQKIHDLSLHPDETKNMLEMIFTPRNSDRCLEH

5α-reductase = assay: 5α-reduction of the compound
skin = assay: topical application of a 4-OHT preparation to the skin over cellulite predilection areas; assay type: in vivo
Text: Not only in theory but also in practice the compounds of the present invention and in particular 4-OHT and its related analogous compounds are the ideal anabolic substances. […] This can be deduced from topical applications to the skin.
The border between the two layers is made up of collagen fibres. Strengthening this border by increasing its collagen content by stimulating the fibroblasts to produce more collagen leads to a marked improvement of the appearance of cellulite.
A topical formulation containing a compound according to the present invention such as 4-OHT or an analogous compound can increase the collagen content of the skin via stimulation of the fibroblasts. […] It is reasonable to assume that 4-OHT has solely anabolic effects. […] Apparently is 4-OHT unable to exert any androgenic effects such as hair growth or pimples.

prostate cancer = conditions: 5 mg/day for 7 years vs placebo, men over 55 years, PSA less than 3.0 ng/ml; cited from earlier work
[2] = topical treatment over predilection areas of cellulite, within four weeks

For `C[C@]12CCC(=O)C[C@@H]1CC[C@@H]1[C@@H]2CC[C@]2(C)[C@@H](O)CC[C@@H]12` [DHT, dihydrotestosterone, reference compound], the “proliferation of LNCaP variant” value [1] is listed as “inhibits the proliferation” and the “growth of breast cancer cells in culture” value (breast cancer cells) is listed as “able to abolish the growth”.
For `C[C@]12CC[C@H]3[C@@H](CCC4=C(O)C(=O)CC[C@@]43C)[C@@H]1CC[C@@H]2O` [4-OHT, 4,17β-dihydroxyandrost-4-en-3-one], the “binding affinity to the AR relative to DHT” value (androgen receptor (AR)) was “higher affinity to the AR than DHT”, the “growth of breast cancer cells in culture” value (breast cancer cells) was “even more effective” and the aromatization (aromatase) was “escapes aromatization”. The 5α-reduction (5α-reductase) was “escapes aromatization or 5α-reduction”, the “androgenic effect on the skin (hair growth, pimples)” value (skin; after application to the skin) was “no androgenic effect whatsoever could be observed” and the “concentration of collagen fibres in the skin” value (skin; topical application to the skin) was “anabolically increases the concentration of collagen fibres; also recorded: drastic augmentation of collagen fibres”. The “topical formulation compared with 4-OHA” value (skin; topical formulation, collagen content of the skin) was “superior than 4-OHA”, the “adipocytes entrapped in the mesh of collagen fibres” value (skin; [2]) was “marked diminution and shrinkage of the adipocytes” and the “solidification of the skin” value (skin; [2]) was “considerable solidification of the skin”.
In the case of `CC(C)(C)NC(=O)[C@H]1CC[C@H]2[C@@H]3CC[C@H]4NC(=O)C=C[C@]4(C)[C@H]3CC[C@]12C` [finasteride], the “reduction of prostate cancers in the treatment arm” value (prostate cancer) is given as 25%.
